Legend:
[1] = system: KARPAS422; test: Co-treatment combination study with Cpd. No. 15, CellTiter-Glo viability, Loewe Volume; type: cell-based; conditions: in combination with Cpd. No. 15, seven days, DLBCL cell line KARPAS422
Method: (§1) Mantle cell lymphoma (MCL) and diffuse large B-cell lymphoma (DLBCL) cell line cultures in log-linear growth rate were treated with combinations of Cpd. No. 15 and combination partners according to a co-treatment model. […] No. 15 and the combination partner. […] Each combination was tested in quadruplicate wells. The final concentration of DMSO (vehicle) in the assay was 0.1% v/v. Fifty microliters of cell line suspension were directly dispensed to the assay-ready plates with an automated multichannel dispenser on to 384-well assay-ready plates. Assay plates were incubated for seven days unless otherwise indicated in a humidified atmosphere of 5% CO2 at 37° C. Quantification of the effect of single agents or combinations on cell viability was performed through measurement of cellular adenosine triphosphate (ATP) using a CellTiter-Glo® (Promega, Madison, WI) Luminescent Cell Viability Assay. Luminescence was detected using a SpectraMax M5 microplate reader (Molecular Devices, Sunnyvale, CA). Concentration response plots were generated in GraphPad Prism version 7.0 for Windows, GraphPad Software, (La Jolla, California) and curves fitted to a four-parameter logistic model with variable slope. Percent of inhibition was calculated at each treatment concentration.

[2] = system: SUDHL4; test: as above; type: cell-based; conditions: in combination with Cpd. No. 15, seven days, DLBCL cell line SUDHL4
Method: as §1

[3] = system: WSUDLCL2; test: as above; type: cell-based; conditions: in combination with Cpd. No. 15, seven days, DLBCL cell line WSUDLCL2
Method: as §1

[4] = system: Pfeiffer; test: as above; type: cell-based; conditions: in combination with Cpd. No. 15, seven days, DLBCL cell line Pfeiffer
Method: as §1

[5] = system: WSUNHL; test: as above; type: cell-based; conditions: in combination with Cpd. No. 15, seven days, DLBCL cell line WSUNHL
Method: as §1

[6] = system: HT; test: as above; type: cell-based; conditions: in combination with Cpd. No. 15, seven days, DLBCL cell line HT
Method: as §1

[7] = system: RL; test: as above; type: cell-based; conditions: in combination with Cpd. No. 15; 6-Day Cotreatment; DLBCL cell line RL
Method: as §1

[8] = system: TOLEDO; test: as above; type: cell-based; conditions: in combination with Cpd. No. 15, seven days, DLBCL cell line TOLEDO
Method: as §1

[9] = system: SUDHL10; test: as above; type: cell-based; conditions: in combination with Cpd. No. 15; 5-Day Cotreatment; DLBCL cell line SUDHL10
Method: as §1

[10] = system: SUDHL5; test: as above; type: cell-based; conditions: in combination with Cpd. No. 15, seven days, DLBCL cell line SUDHL5
Method: as §1

[11] = system: DOHH2; test: as above; type: cell-based; conditions: in combination with Cpd. No. 15, seven days, DLBCL cell line DOHH2
Method: as §1

[12] = system: SUDHL2; test: as above; type: cell-based; conditions: in combination with Cpd. No. 15, seven days, DLBCL cell line SUDHL2
Method: as §1

[13] = system: SUDHL8; test: as above; type: cell-based; conditions: in combination with Cpd. No. 15, seven days, DLBCL cell line SUDHL8
Method: as §1

[14] = system: WILL2; test: as above; type: cell-based; conditions: in combination with Cpd. No. 15, seven days, DLBCL cell line WILL2
Method: as §1

[15] = system: SUDHL6; test: as above; type: cell-based; conditions: in combination with Cpd. No. 15, seven days, DLBCL cell line SUDHL6
Method: as §1

[16] = system: DB; test: as above; type: cell-based; conditions: in combination with Cpd. No. 15, seven days, DLBCL cell line DB
Method: as §1

[17] = system: diffuse large B-cell lymphoma (DLBCL) cell lines; test: Co-treatment combination study with Cpd. No. 15, further cell lines (Table F), CellTiter-Glo viability, Loewe Volume; type: cell-based; conditions: for Combination effect with Cpd. No. 15 (Loewe Volume class), Ri1: co-treatment with Cpd. No. 15, cell line Ri1 (Cat. No. 96090512-1VL); for Combination effect with Cpd. No. 15 (Loewe Volume class), TMD8: co-treatment with Cpd. No. 15, cell line TMD8 (Cat. No. M-097); for Combination effect with Cpd. No. 15 (Loewe Volume class), WILL1: co-treatment with Cpd. No. 15, cell line WILL1 (Cat. No. ACC 651)
Method: as §1

[18] = system: diffuse large B-cell lymphoma (DLBCL) cell lines; test: Pre-treatment model combination study with Cpd. No. 15 (7 days pre-treatment, then combination; Table G), CellTiter-Glo viability, Loewe Volume; conditions: 7 days pre-treatment with Cpd. No. 15, then combination
[19] = system: MAVER1; test: Co-treatment combination study with Cpd. No. 15, CellTiter-Glo viability, Loewe Volume; type: cell-based; conditions: in combination with Cpd. No. 15, seven days, mantle cell lymphoma cell line MAVER1 (CRL-3008)
Method: as §1

[20] = system: JEKO1; test: as above; type: cell-based; conditions: in combination with Cpd. No. 15, seven days, mantle cell lymphoma cell line JEKO1 (CRL-3006)
Method: as §1

[21] = system: GRANTA519; test: as above; type: cell-based; conditions: in combination with Cpd. No. 15, seven days, mantle cell lymphoma cell line GRANTA519 (ACC 342)
Method: as §1

[22] = system: MINO; test: as above; type: cell-based; conditions: in combination with Cpd. No. 15, seven days, mantle cell lymphoma cell line MINO (CRL-3000)
Method: as §1

[23] = system: REC1; test: as above; type: cell-based; conditions: in combination with Cpd. No. 15, seven days, mantle cell lymphoma cell line REC1 (CRL-3004)
Method: as §1

[24] = system: Z138; test: as above; type: cell-based; conditions: in combination with Cpd. No. 15, seven days, mantle cell lymphoma cell line Z138 (CRL-3001)
Method: as §1

[25] = system: JVM2; test: as above; type: cell-based; conditions: in combination with Cpd. No. 15, seven days, mantle cell lymphoma cell line JVM2 (CRL-3002)
Method: as §1

## CNC[C@@H](O)COc1ccc(Cl)c(-c2nc(-c3c(C)noc3C)c(C)c(N3CC4(CCN(C(=O)OC)CC4)C3)n2)c1 [EPZ-2302]
[1]
  Combination effect (Loewe Volume) KARPAS422: Synergy (VLoewe>1: synergy)
[2]
  Combination effect (Loewe Volume) SUDHL4: Synergy (VLoewe>1: synergy)
[3]
  Combination effect (Loewe Volume) WSUDLCL2: Synergy (VLoewe>1: synergy)
[4]
  Combination effect (Loewe Volume) Pfeiffer: No Effect
[5]
  Combination effect (Loewe Volume) WSUNHL: Synergy (VLoewe>1: synergy)
[6]
  Combination effect (Loewe Volume) HT: Synergy (VLoewe>1: synergy)
[7]
  Combination effect (Loewe Volume) RL: Synergy (VLoewe>1: synergy)
[8]
  Combination effect (Loewe Volume) TOLEDO: Synergy (VLoewe>1: synergy)
[9]
  Combination effect (Loewe Volume) SUDHL10: No Effect
[10]
  Combination effect (Loewe Volume) SUDHL5: Additivity (between 1 and −1: additivity)
[11]
  Combination effect (Loewe Volume) DOHH2: Synergy (VLoewe>1: synergy)
[12]
  Combination effect (Loewe Volume) SUDHL2: Synergy (VLoewe>1: synergy)
[13]
  Combination effect (Loewe Volume) SUDHL8: No Effect
[14]
  Combination effect (Loewe Volume) WILL2: Synergy (VLoewe>1: synergy)
[15]
  Combination effect (Loewe Volume) SUDHL6: Synergy (VLoewe>1: synergy)
[16]
  Combination effect (Loewe Volume) DB: No Effect
[17]
  Combination effect with Cpd. No. 15 (Loewe Volume class), Ri1: Synergy (VLoewe>1: synergy)
  Combination effect with Cpd. No. 15 (Loewe Volume class), TMD8: Synergy (VLoewe>1: synergy)
  Combination effect with Cpd. No. 15 (Loewe Volume class), WILL1: Synergy (VLoewe>1: synergy)

## Nc1ccn([C@@H]2O[C@H](CO)[C@@H](O)C2(F)F)c(=O)n1 [Gemcitabine, gemcitabine]
[1]
  Combination effect (Loewe Volume) KARPAS422: Additivity (between 1 and −1: additivity)
[2]
  Combination effect (Loewe Volume) SUDHL4: Additivity (between 1 and −1: additivity)
[3]
  Combination effect (Loewe Volume) WSUDLCL2: Additivity (between 1 and −1: additivity)
[4]
  Combination effect (Loewe Volume) Pfeiffer: Additivity (between 1 and −1: additivity)
[5]
  Combination effect (Loewe Volume) WSUNHL: Additivity (between 1 and −1: additivity)
[6]
  Combination effect (Loewe Volume) HT: Additivity (between 1 and −1: additivity)
[7]
  Combination effect (Loewe Volume) RL: Additivity (between 1 and −1: additivity)
[8]
  Combination effect (Loewe Volume) TOLEDO: Additivity (between 1 and −1: additivity)
[9]
  Combination effect (Loewe Volume) SUDHL10: Additivity (between 1 and −1: additivity)
[10]
  Combination effect (Loewe Volume) SUDHL5: Additivity (between 1 and −1: additivity)
[11]
  Combination effect (Loewe Volume) DOHH2: Additivity (between 1 and −1: additivity)
[12]
  Combination effect (Loewe Volume) SUDHL2: Additivity (between 1 and −1: additivity)
[13]
  Combination effect (Loewe Volume) SUDHL8: Additivity (between 1 and −1: additivity)
[14]
  Combination effect (Loewe Volume) WILL2: Additivity (between 1 and −1: additivity)
[15]
  Combination effect (Loewe Volume) SUDHL6: Additivity (between 1 and −1: additivity)
[16]
  Combination effect (Loewe Volume) DB: Additivity (between 1 and −1: additivity)
[17]
  Combination effect with Cpd. No. 15 (Loewe Volume class), Ri1: Additivity (between 1 and −1: additivity)
  Combination effect with Cpd. No. 15 (Loewe Volume class), TMD8: Additivity (between 1 and −1: additivity)
  Combination effect with Cpd. No. 15 (Loewe Volume class), WILL1: Additivity (between 1 and −1: additivity)
[18]; cell line Farage (Cat. No. CRL-2630)
  Combination effect with Cpd. No. 15 (Loewe Volume class), Farage: Additivity (between 1 and −1: additivity)
[18]; cell line HT (Cat. No. CRL-2631)
  Combination effect with Cpd. No. 15 (Loewe Volume class), HT: Additivity (between 1 and −1: additivity)
[18]; cell line OCILY7 (Cat. No. ACC 688)
  Combination effect with Cpd. No. 15 (Loewe Volume class), OCILY7: Additivity (between 1 and −1: additivity)
[18]; cell line SUDHL4 (Cat. No. ACC 495)
  Combination effect with Cpd. No. 15 (Loewe Volume class), SUDHL4: Additivity (between 1 and −1: additivity)
[18]; cell line WILL2 (Cat. No. ACC 652)
  Combination effect with Cpd. No. 15 (Loewe Volume class), WILL2: Additivity (between 1 and −1: additivity)

## C=CC(=O)N1CCC[C@@H](n2nc(-c3ccc(Oc4ccccc4)cc3)c3c(N)ncnc32)C1 [Ibrutinib, ibrutinib]
[19]
  Combination effect (Loewe Volume) MAVER1: Synergy (VLoewe>1: synergy)
[20]
  Combination effect (Loewe Volume) JEKO1: Synergy (VLoewe>1: synergy)
[1]
  Combination effect (Loewe Volume) KARPAS422: No Effect
[2]
  Combination effect (Loewe Volume) SUDHL4: Synergy (VLoewe>1: synergy)
[3]
  Combination effect (Loewe Volume) WSUDLCL2: Additivity (between 1 and −1: additivity)
[4]
  Combination effect (Loewe Volume) Pfeiffer: No Effect
[21]
  Combination effect (Loewe Volume) GRANTA519: Additivity (between 1 and −1: additivity)
[5]
  Combination effect (Loewe Volume) WSUNHL: Additivity (between 1 and −1: additivity)
[6]
  Combination effect (Loewe Volume) HT: No Effect
[7]
  Combination effect (Loewe Volume) RL: Additivity (between 1 and −1: additivity)
[22]
  Combination effect (Loewe Volume) MINO: Synergy (VLoewe>1: synergy)
[23]
  Combination effect (Loewe Volume) REC1: Additivity (between 1 and −1: additivity)
[8]
  Combination effect (Loewe Volume) TOLEDO: No Effect
[9]
  Combination effect (Loewe Volume) SUDHL10: No Effect
[24]
  Combination effect (Loewe Volume) Z138: No Effect
[10]
  Combination effect (Loewe Volume) SUDHL5: No Effect
[11]
  Combination effect (Loewe Volume) DOHH2: Synergy (VLoewe>1: synergy)
[12]
  Combination effect (Loewe Volume) SUDHL2: No Effect
[13]
  Combination effect (Loewe Volume) SUDHL8: No Effect
[25]
  Combination effect (Loewe Volume) JVM2: Additivity (between 1 and −1: additivity)
[14]
  Combination effect (Loewe Volume) WILL2: Additivity (between 1 and −1: additivity)
[15]
  Combination effect (Loewe Volume) SUDHL6: Synergy (VLoewe>1: synergy)
[16]
  Combination effect (Loewe Volume) DB: No Effect

From US20240299352A1, “COMBINATION THERAPIES WITH SETD2 INHIBITORS” (Epizyme, Inc., priority 2021, published 2024)
